# Data: ChEMBL document CHEMBL1201862, “PubChem BioAssay data set” (2004)
#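 Results reflect a 48-hour exposure of cells in 96-well plates to compound at five concentrations. GI50: concentration for 50% inhibition of growth.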 Active and inactive are the calls of the source. No stated cut-off is given here; in the data, active = GI50 up to about 1.1 µM and inactive = higher.
# Experiments:
# Assay in all cases: NCI-60 cell line screen, 48 h
# RXF 393 = system: RXF 393
# DU-145 = system: DU-145
# UACC-257 = system: UACC-257
# OVCAR-3 = system: OVCAR-3
# A549 = system: A549
# Malme-3M = system: Malme-3M
# 786-0 = system: 786-0
# NCI-H522 = system: NCI-H522
# NCI-H460 = system: NCI-H460
# T47D = system: T47D
# IGROV-1 = system: IGROV-1
# MOLT-4 = system: MOLT-4
# ACHN = system: ACHN
# UO-31 = system: UO-31
# EKVX = system: EKVX
# SF-295 = system: SF-295
# SR = system: SR
# HL-60 = system: HL-60
# TK-10 = system: TK-10
# SK-OV-3 = system: SK-OV-3
# U-251 = system: U-251
# Hs-578T = system: Hs-578T
# HCC 2998 = system: HCC 2998
# HOP-62 = system: HOP-62
# KM12 = system: KM12
# SNB-75 = system: SNB-75
# BT-549 = system: BT-549
# SN12C = system: SN12C
# LOX IMVI = system: LOX IMVI
# K562 = system: K562
# UACC-62 = system: UACC-62
# RPMI-8226 = system: RPMI-8226
# NCI-H226 = system: NCI-H226
# CCRF-CEM = system: CCRF-CEM
# NCI-H23 = system: NCI-H23
# HCT-116 = system: HCT-116
# NCI/ADR-RES = system: NCI/ADR-RES
# SW-620 = system: SW-620
# COLO 205 = system: COLO 205
# MDA-MB-231 = system: MDA-MB-231
# SF-268 = system: SF-268
# A498 = system: A498
# HOP-92 = system: HOP-92
# SF-539 = system: SF-539
# MDA-MB-435 = system: MDA-MB-435
# OVCAR-8 = system: OVCAR-8
# HT-29 = system: HT-29
# SNB-19 = system: SNB-19
# OVCAR-4 = system: OVCAR-4
# SK-MEL-5 = system: SK-MEL-5
# M14 = system: M14
# MDA-N = system: MDA-N
# CAKI-1 = system: CAKI-1
# PC-3 = system: PC-3
# HCT-15 = system: HCT-15
# OVCAR-5 = system: OVCAR-5
# SK-MEL-28 = system: SK-MEL-28
# MCF7 = system: MCF7
# SK-MEL-2 = system: SK-MEL-2
smiles,measurement,setting,value
Cc1ccc2c(c1)C(=O)C1(C2)Cc2c(C)cccc2C1=O (stereo not given),GI50,RXF 393,> 100 µM (inactive)
same,GI50,DU-145,> 100 µM (inactive)
same,GI50,UACC-257,> 100 µM (inactive)
same,GI50,OVCAR-3,> 100 µM (inactive)
same,GI50,A549,> 100 µM (inactive)
same,GI50,Malme-3M,> 100 µM (inactive)
same,GI50,786-0,> 100 µM (inactive)
same,GI50,NCI-H522,> 100 µM (inactive)
same,GI50,NCI-H460,> 100 µM (inactive)
same,GI50,T47D,> 100 µM (inactive)
same,GI50,IGROV-1,> 100 µM (inactive)
same,GI50,MOLT-4,> 100 µM (inactive)
same,GI50,ACHN,> 100 µM (inactive)
same,GI50,UO-31,> 100 µM (inactive)
same,GI50,EKVX,> 100 µM (inactive)
same,GI50,SF-295,> 100 µM (inactive)
same,GI50,SR,> 100 µM (inactive)
same,GI50,HL-60,> 100 µM (inactive)
same,GI50,TK-10,> 100 µM (inactive)
same,GI50,SK-OV-3,> 100 µM (inactive)
same,GI50,U-251,> 100 µM (inactive)
same,GI50,Hs-578T,> 100 µM (inactive)
same,GI50,HCC 2998,> 100 µM (inactive)
same,GI50,HOP-62,> 100 µM (inactive)
same,GI50,KM12,> 100 µM (inactive)
same,GI50,SNB-75,> 100 µM (inactive)
same,GI50,BT-549,> 100 µM (inactive)
same,GI50,SN12C,> 100 µM (inactive)
same,GI50,LOX IMVI,> 100 µM (inactive)
same,GI50,K562,> 100 µM (inactive)
same,GI50,UACC-62,> 100 µM (inactive)
same,GI50,RPMI-8226,> 100 µM (inactive)
same,GI50,NCI-H226,> 100 µM (inactive)
same,GI50,CCRF-CEM,> 100 µM (inactive)
same,GI50,NCI-H23,> 100 µM (inactive)
same,GI50,HCT-116,> 100 µM (inactive)
same,GI50,NCI/ADR-RES,> 100 µM (inactive)
same,GI50,SW-620,> 100 µM (inactive)
same,GI50,COLO 205,> 100 µM (inactive)
same,GI50,MDA-MB-231,> 100 µM (inactive)
same,GI50,SF-268,> 100 µM (inactive)
same,GI50,A498,> 100 µM (inactive)
same,GI50,HOP-92,> 100 µM (inactive)
same,GI50,SF-539,> 100 µM (inactive)
same,GI50,MDA-MB-435,> 100 µM (inactive)
same,GI50,OVCAR-8,> 100 µM (inactive)
same,GI50,HT-29,> 100 µM (inactive)
same,GI50,SNB-19,> 100 µM (inactive)
same,GI50,OVCAR-4,> 100 µM (inactive)
same,GI50,SK-MEL-5,> 100 µM (inactive)
same,GI50,M14,> 100 µM (inactive)
same,GI50,MDA-N,> 100 µM (inactive)
same,GI50,CAKI-1,> 100 µM (inactive)
same,GI50,PC-3,> 100 µM (inactive)
same,GI50,HCT-15,> 100 µM
same,GI50,OVCAR-5,> 100 µM (inactive)
same,GI50,SK-MEL-28,> 100 µM (inactive)
same,GI50,MCF7,> 100 µM (inactive)
Cc1ccc(Nc2nnc3n2S(=O)(=O)c2cc(C)c(Cl)cc2S3)cc1,GI50,RXF 393,10.5 µM (inactive)
same,GI50,DU-145,8.09 µM (inactive)
same,GI50,UACC-257,34.5 µM (inactive)
same,GI50,OVCAR-3,2 µM (inactive)
same,GI50,A549,8.39 µM (inactive)
same,GI50,786-0,10.3 µM (inactive)
same,GI50,NCI-H522,2.18 µM (inactive)
same,GI50,NCI-H460,7.23 µM (inactive)
same,GI50,T47D,17.7 µM (inactive)
same,GI50,IGROV-1,4.4 µM (inactive)
same,GI50,MOLT-4,4.25 µM (inactive)
same,GI50,ACHN,27.9 µM (inactive)
same,GI50,UO-31,17.3 µM (inactive)
same,GI50,EKVX,25.4 µM (inactive)
same,GI50,SF-295,3.22 µM (inactive)
same,GI50,SR,2.4 µM (inactive)
same,GI50,HL-60,3.48 µM (inactive)
same,GI50,TK-10,35.2 µM (inactive)
same,GI50,U-251,4.66 µM (inactive)
same,GI50,Hs-578T,2.89 µM (inactive)
same,GI50,HCC 2998,18.2 µM (inactive)
same,GI50,HOP-62,6.35 µM (inactive)
same,GI50,KM12,6.56 µM (inactive)
same,GI50,SNB-75,6.93 µM (inactive)
same,GI50,BT-549,5.28 µM (inactive)
same,GI50,LOX IMVI,6.14 µM (inactive)
same,GI50,K562,3.4 µM (inactive)
same,GI50,RPMI-8226,18.4 µM (inactive)
same,GI50,NCI-H226,10.7 µM (inactive)
same,GI50,NCI-H23,8.95 µM (inactive)
same,GI50,HCT-116,6.37 µM (inactive)
same,GI50,NCI/ADR-RES,16.1 µM (inactive)
same,GI50,SW-620,14.5 µM (inactive)
same,GI50,MDA-MB-231,13.4 µM (inactive)
same,GI50,SF-268,4.25 µM (inactive)
same,GI50,A498,15.4 µM (inactive)
same,GI50,HOP-92,4.89 µM (inactive)
same,GI50,SF-539,3.77 µM (inactive)
same,GI50,MDA-MB-435,3.64 µM (inactive)
same,GI50,OVCAR-8,12.6 µM (inactive)
same,GI50,HT-29,10.3 µM (inactive)
same,GI50,OVCAR-4,22.8 µM (inactive)
same,GI50,SK-MEL-5,3.6 µM (inactive)
same,GI50,M14,7.14 µM (inactive)
same,GI50,MDA-N,1.7 µM (inactive)
same,GI50,CAKI-1,23 µM (inactive)
same,GI50,SK-MEL-2,3.91 µM (inactive)
same,GI50,PC-3,4.39 µM (inactive)
same,GI50,HCT-15,5.05 µM
same,GI50,OVCAR-5,14.1 µM (inactive)
same,GI50,SK-MEL-28,19.6 µM (inactive)
same,GI50,MCF7,5.26 µM (inactive)
